Source: patent US20060013796A1, “Hair and/or scalp treatment composition” (priority 2002, published 2006)

Legend:
[1] = test system: Malassezia furfur CBS 7019; assay: MIC of oils and their components, microtitre plate assay; assay type: cell-based; details: substance alone
Description: (§1) Studies into anti-microbial action were performed using a microtitre plate cross-assay in triplicate against the type strain Malassezia furfur CBS 7019. The Fractional Inhibitory Concentration (FIC), the concentration of biocide in a mixture of biocides that inhibits growth, was determined for natural oils and a number of terpenoid components with the conventional anti-dandruff/anti-fungal agents.

[2] = test system: Malassezia furfur CBS 7019; assay: Microtitre plate cross-assay, Fractional Inhibitory Concentration (FIC) with conventional anti-dandruff/anti-fungal agents; assay type: cell-based; details: M. furfur CBS 7019; for FIC interpretation with Octopirox / FIC values with Octopirox: combination with Octopirox; for FIC values with Octopirox / FIC values with climbazole / FIC values with zinc pyrithione (ZnPTO): triplicate; for FIC interpretation with climbazole / FIC values with climbazole: combination with climbazole; for FIC interpretation with zinc pyrithione (ZnPTO) / FIC values with zinc pyrithione (ZnPTO): combination with zinc pyrithione (ZnPTO)
Description: FIC values are for activity against M.furfur, such as CBS 7019, and are calculated in ways well-known in the art.
as §1
The definition of synergy is a combination of biocides in which the effect is greater than the sum of the expected effects of the individual components.

SMILES | MIC values for oils and their components [1] [%] | FIC interpretation with Octopirox [2] | FIC values with Octopirox [2] | FIC interpretation with climbazole [2] | FIC values with climbazole [2] | FIC interpretation with zinc pyrithione (ZnPTO) [2] | FIC values with zinc pyrithione (ZnPTO) [2]
C=CCc1ccc(OC)cc1 [4-allylanisole] | 0.25 | antagonistic (>1 antagonistic) | 2 | antagonistic (>1 antagonistic) | 2 | synergy (<1 synergy) | 0.725
C=CCc1ccc(O)c(OC)c1 [Eugenol, eugenol] | 0.01 | synergy (<1 synergy) | 0.567 | synergy (<1 synergy) | 0.56 | synergy (<1 synergy) | 0.625
C=CC(C)(O)CCC=C(C)C (centres unmarked) [Linalool, linalool] | 0.01 | antagonistic (>1 antagonistic) | 2 | – | 0.417 | synergy (<1 synergy) | 0.625
CC1=CCC(O)(C(C)C)CC1 (centres unmarked) [terpinen-4-ol] | – | antagonistic (>1 antagonistic) | 2 | – | 0.37 | synergy (<1 synergy) | 0.83

Continued, in another order:

MIC values for oils and their components [1] [%] | SMILES | FIC interpretation with Octopirox [2] | FIC values with Octopirox [2] | FIC interpretation with climbazole [2] | FIC values with climbazole [2] | FIC interpretation with zinc pyrithione (ZnPTO) [2] | FIC values with zinc pyrithione (ZnPTO) [2]
>8 | C=C1C2CCC(C2)C1(C)C (centres unmarked) [Camphene] | – | – | – | – | – | –
1 | CC12CCC(CC1)C(C)(C)O2 [Cineole] | – | – | – | – | – | –
>8 | C=C(C)[C@H]1CC=C(C)CC1 [Limonene] | antagonistic (>1 antagonistic) | 2 | antagonistic (>1 antagonistic) | 2 | antagonistic (>1 antagonistic) | 1.5
0.3 | CC1=CCC2CC1C2(C)C (stereo not drawn) [α-pinene] | antagonistic (>1 antagonistic) | 2 | antagonistic (>1 antagonistic) | 2 | antagonistic (>1 antagonistic) | 1.42
0.02 | CC1=CCC(C(C)(C)O)CC1 (stereo not drawn) [α-terpineol, alpha-terpineol] | – | 2 | synergy (<1 synergy) | 0.625 | antagonistic (>1 antagonistic) | 2
